The values below come from ChEMBL document CHEMBL2074525, “Screening of multidrug-resistance sensitive drugs by in situ brain perfusion in P-glycoprotein-deficient mice” (Pharm Res, 2001).

The structures appear in SMILES notation.

For this data set, the target named is ATP-dependent translocase ABCB1 (Mus musculus, UniProt P21447). Kind of data set: TP_TRANSPORTER: increase in blood-brain coefficient in mdr1a(-/-) mouse. The data set is classed as functional, organism-based. Particulars: in vivo.
Sequence of ATP-dependent translocase ABCB1 (P21447 whole entry): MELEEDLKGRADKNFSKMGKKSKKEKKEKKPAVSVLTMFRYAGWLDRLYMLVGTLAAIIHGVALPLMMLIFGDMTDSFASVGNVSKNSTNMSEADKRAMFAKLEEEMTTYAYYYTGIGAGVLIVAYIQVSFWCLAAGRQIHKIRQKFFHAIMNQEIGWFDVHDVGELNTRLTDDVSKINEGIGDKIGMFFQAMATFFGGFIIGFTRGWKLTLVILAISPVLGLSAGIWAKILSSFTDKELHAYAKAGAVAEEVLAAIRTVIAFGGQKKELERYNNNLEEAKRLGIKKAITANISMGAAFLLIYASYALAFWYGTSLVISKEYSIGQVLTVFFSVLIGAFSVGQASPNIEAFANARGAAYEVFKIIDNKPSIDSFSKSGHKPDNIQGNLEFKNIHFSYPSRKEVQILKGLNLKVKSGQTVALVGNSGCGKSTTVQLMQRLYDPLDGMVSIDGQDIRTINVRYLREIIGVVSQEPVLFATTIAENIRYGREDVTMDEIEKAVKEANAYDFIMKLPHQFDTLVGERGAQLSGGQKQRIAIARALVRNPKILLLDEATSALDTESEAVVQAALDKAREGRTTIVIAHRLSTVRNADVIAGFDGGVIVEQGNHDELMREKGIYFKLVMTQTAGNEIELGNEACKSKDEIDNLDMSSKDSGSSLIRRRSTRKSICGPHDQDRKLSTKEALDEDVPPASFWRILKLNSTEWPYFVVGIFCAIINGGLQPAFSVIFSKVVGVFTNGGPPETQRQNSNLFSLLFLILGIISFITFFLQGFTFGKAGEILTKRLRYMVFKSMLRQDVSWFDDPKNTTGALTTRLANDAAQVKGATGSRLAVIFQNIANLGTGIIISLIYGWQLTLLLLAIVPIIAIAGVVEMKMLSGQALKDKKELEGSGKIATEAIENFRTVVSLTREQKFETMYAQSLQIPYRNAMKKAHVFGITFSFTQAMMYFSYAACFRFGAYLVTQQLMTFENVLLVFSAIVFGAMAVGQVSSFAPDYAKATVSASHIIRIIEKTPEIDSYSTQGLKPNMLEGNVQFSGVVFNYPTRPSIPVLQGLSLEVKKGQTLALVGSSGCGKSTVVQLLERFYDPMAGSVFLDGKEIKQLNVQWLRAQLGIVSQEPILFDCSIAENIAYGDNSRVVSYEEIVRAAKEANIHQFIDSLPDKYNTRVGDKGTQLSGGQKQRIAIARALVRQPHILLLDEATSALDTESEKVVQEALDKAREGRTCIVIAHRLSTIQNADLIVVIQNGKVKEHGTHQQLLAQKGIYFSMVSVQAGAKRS

For `COc1cccc2c1C(=O)c1c(O)c3c(c(O)c1C2=O)C[C@@](O)(C(=O)CO)C[C@@H]3O[C@H]1C[C@H](N)[C@H](O)[C@H](C)O1` [DOXORUBICIN], the Activity result was “substrate [+]”.
